# Publication PMC3767973 (Chembiochem : a European journal of chemical biology, 2013)
# What was measured:
# DXP synthase [1] = target: T1, DXP synthase (Escherichia coli, UniProt P77488); assay: Aromatic aldehydes as DXP synthase acceptor substrates; type: biochemical
# T1 sequence (P77488 1-620): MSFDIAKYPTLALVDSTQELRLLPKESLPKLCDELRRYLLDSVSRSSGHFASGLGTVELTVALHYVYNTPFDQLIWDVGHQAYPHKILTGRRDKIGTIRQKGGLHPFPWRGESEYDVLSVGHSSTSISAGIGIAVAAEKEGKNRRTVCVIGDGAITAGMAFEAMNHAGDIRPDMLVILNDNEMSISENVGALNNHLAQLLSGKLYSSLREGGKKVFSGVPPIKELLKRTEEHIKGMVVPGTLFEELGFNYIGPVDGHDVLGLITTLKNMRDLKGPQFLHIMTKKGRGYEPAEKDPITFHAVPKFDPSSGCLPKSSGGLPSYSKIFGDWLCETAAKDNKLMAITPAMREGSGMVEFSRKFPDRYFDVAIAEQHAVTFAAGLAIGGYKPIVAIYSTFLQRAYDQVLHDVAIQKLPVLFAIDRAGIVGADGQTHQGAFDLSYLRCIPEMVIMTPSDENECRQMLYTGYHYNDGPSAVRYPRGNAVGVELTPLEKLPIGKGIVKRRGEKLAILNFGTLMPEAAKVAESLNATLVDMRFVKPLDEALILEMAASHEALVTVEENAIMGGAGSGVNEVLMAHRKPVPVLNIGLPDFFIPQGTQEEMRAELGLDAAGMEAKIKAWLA
# E. coli DXP synthase = target: T2, E. coli DXP synthase (Escherichia coli, UniProt P77488); type: biochemical; conditions: 100 mM HEPES pH 8.0, 10-20 mM pyruvate, 10% DMSO, 37 °C; average ± SEM, triplicate
# T2 sequence (P77488 1-620): T1 sequence (P77488 1-620)
# Porcine PDH E1 subunit = assay: Kinetic parameters of nitroso substrates with PDH; type: biochemical; conditions: read-out: PDH Km; 100 mM HEPES pH 8.0, 10-20 mM pyruvate, 10% DMSO, 37 °C; average ± SEM, triplicate
# IspC = target: T3, IspC (Escherichia coli, UniProt P45568); assay: Inhibition of the coupling enzyme IspC by BnAP; type: biochemical; conditions: up to 1.5 mM
# T3 sequence (P45568 1-398): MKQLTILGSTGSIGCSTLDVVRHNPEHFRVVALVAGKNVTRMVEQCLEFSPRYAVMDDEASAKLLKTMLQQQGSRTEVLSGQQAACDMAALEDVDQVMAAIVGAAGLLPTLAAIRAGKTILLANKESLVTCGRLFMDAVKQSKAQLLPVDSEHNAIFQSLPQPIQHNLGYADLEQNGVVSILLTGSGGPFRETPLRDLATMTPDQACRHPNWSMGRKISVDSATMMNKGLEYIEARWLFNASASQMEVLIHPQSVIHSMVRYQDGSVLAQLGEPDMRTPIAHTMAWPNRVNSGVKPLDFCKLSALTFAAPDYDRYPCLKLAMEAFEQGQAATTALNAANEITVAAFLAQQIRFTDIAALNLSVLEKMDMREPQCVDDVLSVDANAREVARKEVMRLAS
# DXP synthase [2] = target: DXP synthase (Escherichia coli, UniProt P77488); conditions: 0.5-5 mM nitroso substrate, 10-20 mM pyruvate, 37 °C, HPLC
# yeast TK = conditions: cited from earlier work
smiles,measurement,setting,value
"O=Cc1c(O)cc([N+](=O)[O-])cc1[N+](=O)[O-] [2-Hydroxy-4,6-dinitrobenzaldehyde]",kcat,DXP synthase [1]; aromatic aldehyde as acceptor substrate,0.00583 ± 0.00083 s⁻¹
same,Km relative to the natural substrate D-GAP,DXP synthase [1]; fold higher than D-GAP,~ 18 fold
"O=Nc1ccccc1 [Compound 1, nitrosobenzene]",kcat,E. coli DXP synthase,2.92 ± 0.317 s⁻¹
same,Km,Porcine PDH E1 subunit,350 ± 30 µM
"CC(=O)P(=O)(O)OCc1ccccc1 [BnAP, benzylacetylphosphonate]",Inhibition of the coupling enzyme (IspC),IspC,not observed
CN(C)c1ccc(N=O)cc1 [Compound 4],Km,E. coli DXP synthase,54 ± 13 µM
same,kcat,E. coli DXP synthase,0.015 ± 0.0017 s⁻¹
same,Substrate for DXP synthase (turnover),DXP synthase [2],is a substrate
same,Substrate for yeast TK,yeast TK,not a substrate
same,Km,Porcine PDH E1 subunit,408 ± 60 µM
"O=C[C@H](O)COP(=O)(O)O [D-GAP, D-glyceraldehyde 3-phosphate, reference compound]",kcat,E. coli DXP synthase,1.7 ± 0.12 s⁻¹
